Assay results from US20080076147A1, “BIOFILM SAMPLING DEVICE” (BOARD OF TRUSTEES OF SOUTHERN ILLINOIS UNIVERSITY, priority 2006, published 2008).

What was measured:
Burkholderia cepacia = assay: Biocide kill of planktonic cells and biofilm on vascular catheter (serum flow model); type: cell-based; settings: 5 to 60 minutes; for biofilm kill (biocide concentration required to kill 50% of bacteria that grew in the biofilm): biofilm on vascular catheter, FIG. 11B; for planktonic cell kill (biocide concentration required to kill 100% of bacteria present as planktonic cells): planktonic cells on vascular catheter, FIG. 11A
Text: (§1) A system as shown in FIG. 6 was used in this study. Serum and a biocide were placed in sealed bottles as the first fluid source 505 and the second fluid source 509, respectively. The fluid sources were connected to a pump 515 by conventional IV tubing. A second pump 531 was used to deliver the fluid mixture to the vascular catheter 3 positioned in the sampling apparatus 1.
(§2) Initially, only the first fluid source, serum inoculated with Acinetobacter baumanii (10×10^9 CFU/ml), was used to contaminate the catheter with planktonic cells. The inoculated fluid continuously flowed through IV tubing directly through the catheter for […] to form a layer of planktonic cells on the catheter. Fluid flow was then stopped and the tubing was then reconfigured as shown in FIG. 6 so that the second fluid source could be introduced. In these test runs, the first fluid source was inoculated with the same concentration of bacteria, and the second fluid source was a biocide (16-16,000 ppm) selected from hydrogen peroxide (H2O2), sodium hypochlorite (SHC), peracetic acid (PAA) and gluteraldehyde (GLT). The fluid mixture continuously flowed through the catheter for 5, 10, 15, 30, 45 or 60 minutes before fluid flow was discontinued to determine bacterial resistance of the planktonic cells on the catheter. In all, six runs were completed for each of four different biocides. After each run, the test catheter was then cut aseptically into 1 cm segments. The segments were transferred to test tubes containing one ml saline and the adherent cells were dislodged by sonication in an aquasonic device, vortexed for about one minute, and then counted on Tropic soya Agar. The number of viable cells were determined for each catheter and were compared to the number of viable cells in control samples (i.e., biocide-free serum) to calculate the biocide concentration required to kill 50% of the bacteria in the biofilm at the same time interval. Instead of saline, other appropriate buffer solutions can be used. In addition to plating cells on agar and counting the number of colonies, the amount of biofilm formed can be determined by a semiquantitive microtiter plate method. For example, adherent cells can be dislodged from test catheters as described above. The aliquots of solutions containing the cells from each catheter piece can then be added separately to wells of a 96-well tissue culture plate and incubated at 37° C. for 24 h. After several (e.g., three) washes with PBS, any remaining biofilm is stained with safranin O dye for 1 min and washed with PBS again. Optical density at 492 nm is determined with a 96-well plate spectrometer reader. For each time point, an aliquot without biocide is a positive control. Percent inhibition of biofilm accumulation can be determined from the formula (A492positive−A492biocide)/(A492positive−A492)×100%, Such plating methods are well known to one skilled in the art and could be modified as desired for analysis of the biofilm.
(§3) For determination of the bacterial resistance of the biofilm formed on the catheter, the method described above was repeated using the same conditions except that the inoculated fluid continuously flowed through the catheter for two hours before fluid flow was discontinued to form a biofilm on the catheter.
The experiment was repeated as described above, except that Burkholderia cepacia (1×10^9 CFU/ml) was used to inoculate the serum.

[1] = system: methicillin resistant Staphylococcus aureus (MRSA); assay: as above; type: cell-based; settings: biofilm on vascular catheter, 5 to 60 minutes, FIG. 14B
Staphylococcus epidermis = assay: as above; type: cell-based; settings: 5 to 60 minutes; for biofilm kill (biocide concentration required to kill 50% of bacteria that grew in the biofilm): biofilm on vascular catheter, FIG. 15B; for planktonic cell kill (biocide concentration required to kill 100% of bacteria present as planktonic cells): planktonic cells on vascular catheter, FIG. 15A
Text: as §1, §2, §3
The experiment was repeated as described above, except that Staphylococcus epidermis (1×10^9 CFU/ml) was used to inoculate the serum.

Pseudomonas aeruginosa = assay: as above; type: cell-based; settings: 5 to 60 minutes; for biofilm kill (biocide concentration required to kill 50% of bacteria that grew in the biofilm): biofilm on vascular catheter, FIG. 16B; for planktonic cell kill (biocide concentration required to kill 100% of bacteria present as planktonic cells): planktonic cells on vascular catheter, FIG. 16A
Text: as §1, §2, §3
The experiment was repeated as described above, except that Pseudomonas aeruginosa (1×10^9 CFU/ml) was used to inoculate the serum.

[2] = system: Stenotrophomonas maltophilia; assay: as above; type: cell-based; settings: 5 to 60 minutes; for biofilm kill (biocide concentration required to kill 50% of bacteria that grew in the biofilm): biofilm on vascular catheter, FIG. 17B; for planktonic cell kill (biocide concentration required to kill 100% of bacteria present as planktonic cells): planktonic cells on vascular catheter, FIG. 17A
Text: as §1, §2, §3
The experiment was repeated as described above, except that Stenotrophomonas maltophilia (1×10^9 CFU/ml) was used to inoculate the serum.

MRSA [3] = assay: Effect of albumin coating on colonization of MRSA in endotracheal tube model; type: cell-based, Staphylococcus aureus
Text: (§4) A system as shown in FIG. 7 was used in this study. Artificial saliva was placed in a sealed bottle as the second fluid source 609. The first fluid source was provided by an oxygen tank used to saturate the artificial saliva with oxygen. A pump 631 was used to deliver the saliva to an endotracheal tube 3 positioned in the sampling apparatus 1. Each endotracheal tube was pretreated by coating the tube with undiluted bovine serum albumin, except for the untreated tube used as a control.
Initially, only the second fluid source, saliva inoculated with MRSA (1×10^9 CFU/ml), was used to contaminate the endotracheal tube. The inoculated fluid continuously flowed through IV tubing directly through the endotracheal tube for 60 minutes to form a biofilm on the tube. Fluid flow was then stopped and the tubing was then reconfigured as shown in FIG. 7 so that oxygen could be introduced. In these test runs, 100 mg/L mucin was added to the saliva. The fluid mixture continuously flowed through the catheter for 48 hours before fluid flow was discontinued to determine the effect of albumin on the colonization of MRSA on the endotracheal tube. […] The segments were transferred to test tubes containing one ml saline and the adherent cells were dislodges by sonication in an aquasonic device, vortexed for about one minute, and then counted on Tropic soya Agar. […]

Enterococcus faecalis = assay: Biocide kill of planktonic cells and biofilm on vascular catheter (serum flow model); type: cell-based; settings: at 5 minutes of treatment; phase (planktonic or biofilm) not specified, FIGS. 13A-B
Acinetobacter baumanii = assay: as above; type: cell-based; settings: planktonic cells on vascular catheter, 5 to 60 minutes, FIG. 10A
Text: as §1
Initially, only the first fluid source, serum inoculated with Acinetobacter baumanii (10×10^9 CFU/ml), was used to contaminate the catheter with planktonic cells. The inoculated fluid continuously flowed through IV tubing directly through the catheter for […] to form a layer of planktonic cells on the catheter. […] The segments were transferred to test tubes containing one ml saline and the adherent cells were dislodged by sonication in an aquasonic device, vortexed for about one minute, and then counted on Tropic soya Agar. The number of viable cells were determined for each catheter and were compared to the number of viable cells in control samples (i.e., biocide-free serum) to calculate the biocide concentration required to kill 50% of the bacteria in the biofilm at the same time interval. […] In addition to plating cells on agar and counting the number of colonies, the amount of biofilm formed can be determined by a semiquantitive microtiter plate method. […]

Escherichia coli = assay: as above; type: cell-based; settings: biofilm on vascular catheter, over all time periods (5 to 60 minutes), FIG. 12B
MRSA [4] = assay: Mucin in controlling colonization of MRSA in endotracheal tube model; type: cell-based, Staphylococcus aureus; settings: for log10 reduction of colonized MRSA: 48 hours flow, endotracheal tube
Text: as §4, with “1.” for “1. Each endotracheal tube was pretreated by coating the tube with undiluted bovine serum albumin, except for the untreated tube used as a control.”
Initially, only the second fluid source, saliva inoculated with MRSA (1×10^9 CFU/ml), was used to contaminate the endotracheal tube. The inoculated fluid continuously flowed through IV tubing directly through the endotracheal tube for 60 minutes to form a biofilm on the tube. Fluid flow was then stopped and the tubing was then reconfigured as shown in FIG. 7 so that oxygen could be introduced. In these test runs, 100 mg/L mucin was added to the saliva. The fluid mixture continuously flowed through the catheter for 48 hours before fluid flow was discontinued to determine the effect of mucin on the bacterial resistance of the biofilm formed on the endotracheal tube. In all, four runs were completed at 0 mg/L mucin (control), 100 mg/L mucin, 500 mg/L mucin and 1000 mg/L mucin. After each run, the endotracheal tube was cut aseptically into one cm segments. The segments were transferred to test tubes containing one ml saline and the adherent cells were dislodges by sonication in an aquasonic device, vortexed for about one minute, and then counted on Tropic soya Agar.
The results of this study are shown in FIG. 18, which depicts the number of MRSA colony forming units per unit of surface area (CFU/cm^2) on the tube for each mucin concentration. […] The log10 reduction of colonized MRSA was 0.5, 3 (P=0.0001) and 3.5 (P=0.0001) at 100, 500 and 1000 mg/L of mucin, respectively. […] This pathogen plays a significant role in the onset of […] associated pneumonia by causing sustained tracheal colonization.

| Molecule | biofilm kill (biocide concentration required to kill 50% of bacteria that grew in the biofilm) (Burkholderia cepacia) | planktonic cell kill (biocide concentration required to kill 100% of bacteria present as planktonic cells) (Burkholderia cepacia) | biofilm kill (biocide concentration required to kill 50% of bacteria that grew in the biofilm) [1] | biofilm kill (biocide concentration required to kill 50% of bacteria that grew in the biofilm) (Staphylococcus epidermis) | planktonic cell kill (biocide concentration required to kill 100% of bacteria present as planktonic cells) (Staphylococcus epidermis) | biofilm kill (biocide concentration required to kill 50% of bacteria that grew in the biofilm) (Pseudomonas aeruginosa) | planktonic cell kill (biocide concentration required to kill 100% of bacteria present as planktonic cells) (Pseudomonas aeruginosa) | biofilm kill (biocide concentration required to kill 50% of bacteria that grew in the biofilm) [2] | planktonic cell kill (biocide concentration required to kill 100% of bacteria present as planktonic cells) [2] | MRSA colonization of endotracheal tubes (in words) (MRSA [3]; albumin coating of endotracheal tube, FIG. 19) | log10 increase of colonized cells (MRSA [3]; whole tube coating with albumin, 100 mg/L mucin in saliva, 48 hours flow, versus uncoated tube, P<0.0001) [log10] | effectiveness as compared to the other biocides (Enterococcus faecalis) | planktonic cell kill (biocide concentration required to kill 100% of bacteria present as planktonic cells) (Acinetobacter baumanii) | biofilm kill (biocide concentration required to kill 50% of bacteria that grew in the biofilm) (Escherichia coli) | log10 reduction of colonized MRSA (MRSA [4]; 100 mg/L of mucin in oxygen-saturated artificial saliva) [log10] | log10 reduction of colonized MRSA (MRSA [4]; 500 mg/L of mucin in oxygen-saturated artificial saliva, P=0.0001) [log10] | log10 reduction of colonized MRSA (MRSA [4]; 1000 mg/L of mucin in oxygen-saturated artificial saliva, P=0.0001) [log10] | colonization of MRSA on endotracheal tubes (in words) (MRSA [4]; mucin 100-1000 mg/L in artificial saliva, in vitro, FIG. 18) |
| --- | --- | --- | --- | --- | --- | --- | --- | --- | --- | --- | --- | --- | --- | --- | --- | --- | --- | --- |
| OCl [SHC, sodium hypochlorite] | nearly identical effect | performed comparably and were more effective than hydrogen peroxide | PAA>GLT>hydrogen peroxide>SHC | performed comparably | performed similarly in planktonic cell kill and outperformed hydrogen peroxide | PAA>SHC>GLT>hydrogen peroxide | PAA and GLT performed comparably and were more effective than hydrogen peroxide and SHC | nearly identical effect | GLT was somewhat more effective in killing planktonic cells as compared to SHC or PAA |  |  |  |  |  |  |  |  |  |
| bovine serum albumin |  |  |  |  |  |  |  |  |  | increased significantly | 2.4 |  |  |  |  |  |  |  |
| OO [hydrogen peroxide] | nearly identical effect | SHC, PAA and GLT performed comparably and were more effective than hydrogen peroxide | PAA>GLT>hydrogen peroxide>SHC | performed comparably | SHC, PAA and GLT performed similarly in planktonic cell kill and outperformed hydrogen peroxide | PAA>SHC>GLT>hydrogen peroxide | PAA and GLT performed comparably and were more effective than hydrogen peroxide and SHC | nearly identical effect | GLT was somewhat more effective in killing planktonic cells as compared to SHC or PAA and considerably more effective than hydrogen peroxide |  |  | relatively uneffective |  |  |  |  |  |  |
| O=CCCCC=O [GLT, gluteraldehyde] | nearly identical effect | performed comparably and were more effective than hydrogen peroxide | PAA>GLT>hydrogen peroxide>SHC | least effective | performed similarly in planktonic cell kill and outperformed hydrogen peroxide | PAA>SHC>GLT>hydrogen peroxide | performed comparably and were more effective than hydrogen peroxide and SHC | nearly identical effect | somewhat more effective in killing planktonic cells as compared to SHC or PAA and considerably more effective than hydrogen peroxide |  |  |  | most effective | least effective |  |  |  |  |
| mucin |  |  |  |  |  |  |  |  |  |  |  |  |  |  | 0.5 | 3 | 3.5 | effective in decreasing the colonization of MRSA on endotracheal tubes |
